Source: patent US20220298038A1, “A METHOD FOR DISRUPTING BIOFILMS IN WASTEWATER SYSTEMS” (GRENOF PTY LTD, priority 2019, published 2022)
Where two headings read alike, the source gives them in different places.

Tests used:
[1] = cited from earlier work
[2] = cited from earlier work; remark: listed apart in the source
[3] = test system: biofilm in a sewerage network; experiment: Trial 2: H2S Odalog monitoring, manhole 200 m from Location 2; parameters: species or system sulphate reducing microbes and methanogenic archaea
biofilm = experiment: Biofilm disrupting activity compared with other oxidants
Protocol: Peracetic acid is typically more reactive at higher temperature (5 times more reactive at 35° C. than 15° C.). […] This is believed to be due to the nature and type of radicals formed upon cleavage of the peracetic acid peroxy bond.

[4] = cited from earlier work; remark: listed apart in the source
[5] = 35° C. vs 15° C.; cited from earlier work
Catalase = details: cited from earlier work
[6] = cited from earlier work; remark: listed apart in the source
[7] = Days 67-68, H2O2 330 mg/L after F1 dosing stopped
[8] = standard oxidation potential (at pH 7)

S [Bisulphide (HS^−), Bisulphide]
Mole Fraction of Species (%) ([1]; pH 4): <1%
Mole Fraction of Species (%) ([1]; pH 5): ~1%
Mole Fraction of Species (%) ([1]; pH 5.5): 3%
Mole Fraction of Species (%) ([1]; pH 6.0): 9%
Mole Fraction of Species (%) ([1]; pH 6.5): 24%
Mole Fraction of Species (%) ([1]; pH 7.0): 50%
Mole Fraction of Species (%) ([1]; pH 7.5): 76%
Mole Fraction of Species (%) ([1]; pH 8.0): 91%
Mole Fraction of Species (%) ([1]; pH 8.5): 97%
Mole Fraction of Species (%) ([1]; pH 9.0): ~99%
Mole Fraction of Species (%) ([1]; pH 10.0): >99%

[O][Cl+][O-] [Chlorine Dioxide]
Oxidation Potential ([2]; pH 7): 0.95 eV

OO [Formulation H2O2, hydrogen peroxide]
Avg. H2S [3, 7]: 0.3 ppm
Peak H2S [3, 7]: 3 ppm
Avg. H2S ([3]; Days 69-81, H2O2 330 mg/L): 2.8 ppm
Peak H2S ([3]; Days 69-81, H2O2 330 mg/L): 72 ppm
Avg. H2S ([3]; Days 82-86, H2O2 1,000 mg/L): 3.7 ppm
Peak H2S ([3]; Days 82-86, H2O2 1,000 mg/L): 33 ppm
Oxidation Potential [2, 8]: 1.78 eV

S [Hydrogen Sulphide (H2S), Hydrogen Sulphide]
Mole Fraction of Species (%) ([1]; pH 4): >99%
Mole Fraction of Species (%) ([1]; pH 5): ~99%
Mole Fraction of Species (%) ([1]; pH 5.5): 97%
Mole Fraction of Species (%) ([1]; pH 6.0): 91%
Mole Fraction of Species (%) ([1]; pH 6.5): 76%
Mole Fraction of Species (%) ([1]; pH 7.5): 24%
Mole Fraction of Species (%) ([1]; pH 8.0): 9%
Mole Fraction of Species (%) ([1]; pH 8.5): 3%
Mole Fraction of Species (%) ([1]; pH 9.0): ~1%
Mole Fraction of Species (%) ([1]; pH 10.0): <1%

O=[O+][O-] [Ozone]
Oxidation Potential ([2]; pH 7): 2.07 eV

CC(=O)OO [Peracetic Acid, peroxyacetic acid]
biofilm disrupting activity compared with hydrogen peroxide (biofilm; vs hydrogen peroxide): stronger biofilm disrupting activity
biofilm disrupting activity compared with ozone (biofilm; vs ozone): stronger biofilm disrupting activity
Oxidation Potential ([2]; pH 7): 1.81 eV
DT50 (25° C.) ([4]; pH 4): 46.7 h
DT50 (25° C.) ([4]; pH 7): 31.7 h
DT50 (25° C.) ([4]; pH 9): 3.6 h
reactivity at 35° C. relative to 15° C. [5]: 5 times

OCl [Sodium Hypochlorite]
Oxidation Potential [2, 8]: 0.94 eV

CCOO [ethyl hydroperoxide]
binding by catalase (Catalase): rapidly
catalysis by catalase (Catalase): very inefficient

CCCCCCCCCCCC(=O)OO [peroxydodecanoic]
solubility in water ([6]; pH 7): very limited solubility

CCCCCCCCCCCCCCCCCC(=O)OO [peroxyoctadecanoic]
solubility in water ([6]; pH 7): very limited solubility

CCCCCCCC(=O)OO [peroxyoctanoic acid]
solubility in water ([6]; (at pH 7)): slightly soluble
